One molecule from PMC4051656, “Cyanuric Acid Hydrolase from Azorhizobium caulinodans ORS 571: Crystal Structure and Insights into a New Class of Ser-Lys Dyad Proteins” (PLoS ONE, 2014) can be followed below.

This assay addresses T1, CAH (cyanuric acid hydrolase from Azorhizobium caulinodans ORS 571) (Azorhizobium caulinodans, UniProt A8IKD2).
T1 construct: gene AZC_3892; heterologously expressed and purified; selenomethionine-substituted for the crystal; domains A 1-99, B 108-242, C 249-355; homotetramer
T1 sequence (A8IKD2 1-356): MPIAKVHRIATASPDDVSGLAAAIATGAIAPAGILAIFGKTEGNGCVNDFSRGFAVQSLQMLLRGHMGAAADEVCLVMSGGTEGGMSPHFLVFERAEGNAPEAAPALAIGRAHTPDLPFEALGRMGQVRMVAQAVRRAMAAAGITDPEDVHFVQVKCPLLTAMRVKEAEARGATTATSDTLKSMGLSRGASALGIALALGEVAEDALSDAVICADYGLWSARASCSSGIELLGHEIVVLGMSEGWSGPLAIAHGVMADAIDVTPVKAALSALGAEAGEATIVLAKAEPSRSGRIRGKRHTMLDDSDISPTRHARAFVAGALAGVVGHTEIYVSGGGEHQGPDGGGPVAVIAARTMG
The experiment in a line: X-ray crystal structure of complex (SAD, […] Å). The format is binding. As to conditions: selenomethionine protein; Tris-HCl pH 7.0-7.5, magnesium sulfate, 20 °C; active site in both subunits; second site on surface of one subunit at lower occupancy.

Take `O=C1CC(=O)NC(=O)N1` [barbituric acid]: the “X-ray crystal structure of complex (SAD, 2.7 Å)” value is on record as “a molecule of the highly analogous substrate analog, barbituric acid was found”.
